In US20230241226A1, “COMPOUNDS FOR TARGETED DEGRADATION OF CARRIER PROTEINS AND USES THEREOF” (CeMM - Forschungszentrum für Molekulare Medizin GmbH, priority 2019, published 2023):
Residues, ends and D or L forms follow the SMILES beside them. *: point of attachment. Cbz = O=C(OCc1ccccc1)*

Key:
[1] = target: T1, SLC9A1 (Homo sapiens, UniProt P19634); assay: Degradation of endogenous SLC9A1 (immunoblot); assay type: cell-based; settings: WT KBM7; 0.5 µM d9A1-2 16 hours; bortezomib 0.25 µM, MG-132 1 µM, MLN4924 1 µM, pomalidomide 1 µM, bafilomycin A1 10 µM
T1 construct: endogenous in cells; host or cells: HAP1, KBM7 (WT and CRBN knockout)
Method: (B) HAP1 and KBM7 cells were treated with different concentrations of d9A1-2.
(C)Both WT and CRBN knockout KBM7 cell lines were treated with 1 µM d9A1-2 for 16 hours.
(D) Chemical “rescue” of d9A1-2 driven degradation. WT KBM7 cell lines were treated with 0.5 µM d9A1-2 for 16 hours. These cells were also treated with bortezomib (bort. 0.25 µM), MG-132 (MG, 1 µM), MLN4924 (MLN,1 µM), pomalidomide (poma., 1 µM), or bafilomycin A1 (bafi., 10 µM). All molecules, apart from bafilomycin, could rescue SLC9A1 from degradation.
(B) HAP1 cells were treated with a dose curve of the warhead, d9A1-1, d9A1-2, d9A1-3, d9A1-4, for 24 hours.
(C) KBM7 cells were treated with varying concentrations of d9A1-2.
HEK293T, LS180 were obtained from ATCC (Manassas, VA, USA), HAP1 WT, HAP1 -/-SLC38A2 (HZGHC001975c003), HAP1 -/-SLC38A9 (HZGHC000777c011) were obtained from Horizon Genomics. Other cell lines utilized here: CAKI (a gift of Georg Winter’s lab), SW620, SW480 (both a gift from Walter Berger’s lab, Medical University Vienna), LOVO, HCT15 (both a gift from Chris Gasche), KBM7 (a gift from Thijn Brummelkamp’s lab), KBM7 -/- CRBN was described in Mayor-Ruiz et al. Cells were cultured, according to the ATCC recommendation in DMEM, RPMI or IMDM medium (Gibco) supplemented with 10% (v/v) FBS and antibiotics (100 U/ml penicillin and […] streptomycin). Knock-in single cell clones of dTAG-HA SLC38A2 HAP1 cell line were generated as previously described. For starvation, culture media was replaced with media without amino acids or FBS.
(§1) For immunoblotting, whole cell extracts were prepared using RIPA lysis buffer (25 mM Tris/HCl pH 7.6, 150 mM NaCl, 1% NP-40, 1% sodium deoxycholate, 0.1% SDS, EDTA-free protease inhibitor (Roche) and phosphatase inhibitors 2+3 (Sigma- Aldrich)). Cell extracts were incubated for 15 min on ice in 50 µL RIPA buffer. Lysates were cleared by centrifugation (20,000 g, 10 min, 4° C.). Protein extracts were quantified and normalized using the BCA assay (Thermo Scientific). Where indicated, cleared lysates where treated with the enzyme PNGase (NEB) to deglycosylate the proteins. Lämmli Sample Buffer 4x was added to protein extract samples without boiling. Cell lysates were run on SDS-polyacrylamide gel in tris-glycine running buffer and transferred to nitrocellulose membranes Amersham Protran 0.45 µm (GE Healthcare), according to standard methods. The membranes were incubated with the antibodies indicated below and visualized with horseradish peroxidase-conjugated secondary antibodies (described below) using the ECL Western blotting system (Thermo Scientific). The following antibodies were used: GAPDH (Santa Cruz, sc-365062), Actin (Cyoskeleton Inc., #AAN01), HA (Covance, cat #MMS-101R), HA (Cell Signaling, #3724), HA7-HRP (Sigma, H6533), HA (Roche, #11867423001), SLC9A1 (Santa Cruz, sc-136239), SLC2A1 (Cell Signaling, #12939), SLC38A1 (Cell Signaling, #36057). Secondary antibody for imaging goat anti-Rat IgG Alexa Fluor 488 (ThermoFisher, A11006). The following secondary antibodies were used for immunoblotting: goat anti-mouse HRP (115-035-003, Jackson ImmunoResearch) and goat anti-rabbit HRP (111-035-003, Jackson ImmunoResearch).
MG132, Bortezomib, Pomalidomide were obtained from Selleckchem. MLN4924 was obtained from MedchemExpress. Bafilomycin was obtained from Enzo Life Sciences. dTAG13 was a generous gift from the Nathanael Gray laboratory, Dana Farber Cancer Institute. The d9A1 degrader series (warhead, d9A1-1 to d9A1-4) was synthesized by Wuxi AppTec. All chemicals were dissolved in DMSO (Sigma-Aldrich) and utilized at the concertation described in respective figures.

[2] = test system: dTAG-HA SLCs; assay: dTAG-driven SLC degradation, statements across SLCs (temporal control, chemical rescue); assay type: cell-based, human; settings: HAP1; 0.5 µM dTAG7 12 or 18 hours; MLN4924 1 µM, pomalidomide 10 µM, bortezomib 1 µM, MG-132 1 µM, bafilomycin A1 2.5 µM
Method: (D)Chemical “rescue” of dTAG-driven degradation of SLCs. HAP1 cell lines expressing dTAG-HA SLC1A5 or dTAG-HA SLC38A9 were treated with 0.5 µM dTAG7 for 12 or 18 hours, respectively. These cells were also treated with chloroquine (CQ, 50 µM), bortezomib (bort., 1 µM), MG-132 (MG, 1 µM), MLN4924 (MLN, 1 µM), pomalidomide (poma., 10 µM), or bafilomycin A1 (bafi., 2.5 µM). SLC degradation was rescued by inhibiting CRL activity or the proteasome, but not by inhibiting the lysosome machinery.
Western blotting with antibodies against the HA-tag and the total protein mirrored the observed pattern.
(D) Chemical “rescue” of dTAG driven degradation. HAP1 cell lines expressing dTAGHA SLC2A3, 39A7, […], and MTCH2 were treated with 0.5 µM dTAG7 for 12 hours. A cell line expressing dTAG-HA SLC38A2 was treated with 0.5 µM dTAG7 for 18 hours. These cells were treated with MLN4924 (MLN, 1 µM), pomalidomide (poma., 10 µM), or bafilomycin A1 (bafi., 2.5 µM) to monitor the inhibition of degradation.
as §1
SLCs were ectopically expressed as fusions to a mutated FKBP domain, also known as the dTAG system. In brief, a dTAGed protein is amenable to degradation by specific chimeric degrader molecules (e.g. dTAG7/dTAG13) that simultaneously bind to the dTAG and the CRL4CRBN E3 ligase, inducing molecular proximity and ensuing degradation by the proteasome. Given that SLCs were expressed in all cellular compartments, the amenability of differentially located SLCs to targeted proteolysis was tested (FIG. 1A, upper graph). Each of the tested SLCs was stably expressed in HAP1 cells, and subcellular localization was assessed by immunofluorescence microscopy (FIG. 1B). In detail, SLCs located at the cell surface (SLC1A5, SLC38A1, SLC2A1, SLC2A3, SLC16A1, SLC4A4, SLC7A3), cell surface and vesicles (SLC38A2), lysosome (SLC38A9), Golgi (SLC35B2, SLC33A1), mitochondria (SLC25A26, SLC25A1, and MTCH2) and endoplasmic reticulum (SLC39A7, SLC30A9) were assayed. Cellular treatment with a specific degrader molecule (dTAG7 or dTAG13) led to identification of SLCs expressed at cell surface, endoplasmic reticulum and lysosome that were amenable to targeted degradation (FIGS. 1C, 5A). The dTAG could be placed on either N- or C-terminus of the SLC, if both face the cytoplasm (FIG. 5B), as exemplified by SLC2A3. […]

T1 sequence (P19634 whole entry): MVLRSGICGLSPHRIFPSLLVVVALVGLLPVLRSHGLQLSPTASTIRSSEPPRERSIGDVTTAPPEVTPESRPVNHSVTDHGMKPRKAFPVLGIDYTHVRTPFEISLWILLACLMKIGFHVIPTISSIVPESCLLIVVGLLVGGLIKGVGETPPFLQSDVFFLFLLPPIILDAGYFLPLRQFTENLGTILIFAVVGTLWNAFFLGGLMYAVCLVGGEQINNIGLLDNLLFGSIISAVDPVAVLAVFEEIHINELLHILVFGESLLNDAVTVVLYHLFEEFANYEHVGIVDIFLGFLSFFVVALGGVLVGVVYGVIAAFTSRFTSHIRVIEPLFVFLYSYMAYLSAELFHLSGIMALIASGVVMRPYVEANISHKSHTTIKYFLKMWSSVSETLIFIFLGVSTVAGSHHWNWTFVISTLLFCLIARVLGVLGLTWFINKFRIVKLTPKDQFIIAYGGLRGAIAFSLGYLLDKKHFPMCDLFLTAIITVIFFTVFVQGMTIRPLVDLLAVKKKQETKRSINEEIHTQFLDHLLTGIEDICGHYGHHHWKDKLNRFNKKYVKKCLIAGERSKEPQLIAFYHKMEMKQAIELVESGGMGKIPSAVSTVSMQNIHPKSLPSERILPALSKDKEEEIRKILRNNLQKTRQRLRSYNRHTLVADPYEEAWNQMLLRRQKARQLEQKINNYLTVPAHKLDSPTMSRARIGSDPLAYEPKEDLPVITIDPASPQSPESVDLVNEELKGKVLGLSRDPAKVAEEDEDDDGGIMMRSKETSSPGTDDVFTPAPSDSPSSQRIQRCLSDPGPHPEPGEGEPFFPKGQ

Row | Structure (SMILES) | effect of co-treatment on d9A1-2 driven SLC9A1 degradation (chemical rescue) [1] | effect of co-treatment on dTAG7 mediated SLC degradation (chemical rescue) [2]
1 | CC(C)C[C@H](NC(=O)[C@H](Cc1ccccc1)NC(=O)c1cnccn1)B(O)O [bortezomib] | rescued SLCs degradation | rescued SLCs degradation
2 | Nc1cccc2c1C(=O)N(C1CCC(=O)NC1=O)C2=O (stereo not drawn) [pomalidomide] | blocked d9A1-2-induced degradation of SLC9A1 | prevented measurable SLC degradation
3 | CO/C1=C\C(C)=C\[C@@H](C)[C@@H](O)[C@@H](C)C/C(C)=C/C=C/[C@H](OC)[C@@H]([C@@H](C)[C@@H](O)[C@H](C)[C@@]2(O)C[C@@H](O)[C@H](C)[C@@H](C(C)C)O2)OC1=O [bafilomycin A1] |  | degradation appeared unaffected
4 | NS(=O)(=O)OC[C@@H]1C[C@@H](n2ccc3c(N[C@H]4CCc5ccccc54)ncnc32)C[C@@H]1O [MLN4924] | abrogated | blocked
5 | CC(C)C[C@@H](C=O)NC(=O)[C@H](CC(C)C)NC(=O)[C@H](CC(C)C)NC(=O)OCc1ccccc1 [MG132] (Cbz-Leu-Leu-Leu-aldehyde) | rescued SLCs degradation | rescued SLCs degradation
